Patent US10806717B2, “Methods and compositions for improving cognitive function” (The Johns Hopkins University, priority 2013, dated 2020)
Entries after “also recorded” stand apart in the source; their conditions may differ.

Tests used:
[1] = test system: Age-Impaired (AI) Long-Evans rats; test: Morris Water Maze retention trial, levetiracetam i.p.; format: in vivo, rat
Experimental: The MWM apparatus consists of a large, circular pool (diameter 1.53 m; height, 0.58 m) filled with water (27° C.) that is made opaque through the addition of non-toxic pigment or some other substance. In the typical “hidden platform” version of the test, rats are trained to find a camouflaged white escape platform (height, 34.5 cm) that is positioned in the center of one quadrant of the maze about 1.0 cm below the water surface. This platform can be retracted to the bottom of the tank or raised to its normal position from outside the maze during behavioral testing. The location of the platform remains constant from trial to trial. Because there are no local cues that mark the position of the platform, the rat's ability to locate it efficiently from any starting position at the perimeter of the pool depends on using information surrounding the maze. The maze is surrounded by black curtains to which white patterns are affixed to provide a configuration of spatial cues. A second platform (height 37.5 cm), with its surface painted black is elevated 2 cm above the water surface during cue training to control for factors unrelated to cognition. The behavior of a rat in the pool is recorded by a camera that is suspended 2.5 m above the center of the pool. The camera is connected to a video tracking system (HVS Image Advanced Tracker VP200) and a PC computer running HVS software developed by Richard Baker of HVS Image, Hampton, UK. Six Age-Impaired (AI) Long-Evans rats (as characterized above) were tested for their memory of new spatial information in the MWM, under different drug/control treatment conditions (vehicle control and two different dosage levels of levetiracetam). The MWM protocol was substantially the same as the one described in Example 1. Specifically for this study, a retention trial was performed after the training trials, as described below. AI rats were given six training trials per training day with a 60-sec inter-trial interval between each training trial for two consecutive days. […]

aged-impaired (AI) rats = test: Radial Arm Maze task with one-hour delay, levetiracetam and/or valproate; format: in vivo, rat; conditions: for effective in reducing the number of errors: levetiracetam on its own
aMCI subjects [2] = test: fMRI activity of medial temporal lobe subregions during memory judgments; format: in vivo, human
aMCI subjects [3] = test system: aMCI subjects; set-up: species or system human; conditions: in vivo
somatostatin in DG hilus = test: Immunohistochemistry of SOM-immunoreactive hilar neurons after chronic levetiracetam; format: in vivo, rat; conditions: levetiracetam 10 mg/kg/day, osmotic minipumps, four weeks, aged-impaired rats; AI-LEV vs AI-VEH p<0.01
[4] = cited from earlier work
[5] = levetiracetam 10 mg/kg/day i.p.

CC[C@@H](C(N)=O)N1CCCC1=O [levetiracetam, (2S)-2-(2-oxopyrrolidin-1-yl)butanamide]
memory performance (time in target quadrant) compared to vehicle ([1]; levetiracetam 5 mg/kg/day i.p.): did not significantly improve
memory performance (time in target quadrant) compared to vehicle [1, 5]: significantly improved memory
time spent in the target annulus [1, 5]: effectivness of the 10 mg/kg/day levetiracetam treatment was also seen
effective doses in the animal model (aged-impaired (AI) rats; AI rats, given acutely): 5 to 10 mg/kg
performance of AI rats in the radial maze task (aged-impaired (AI) rats; levetiracetam 20 mg/kg): fails to improve the performance
effective in reducing the number of errors (aged-impaired (AI) rats; 1.25 mg/kg or 2.5 mg/kg i.p.): not
effective in reducing the number of errors (aged-impaired (AI) rats; 5-10 mg/kg i.p.): effective
DG/CA3 hyperactivity during memory judgments (aMCI subjects [2]; levetiracetam 62.5 mg BID for two weeks, N=20): does not significantly reduce
entorhinal cortex (EC) activity during memory judgments (aMCI subjects [2]; levetiracetam 125 mg twice a day for two weeks vs placebo): increases EC activity
DG/CA3 activity during lure stimuli correctly identified as similar (aMCI subjects [2]; levetiracetam 125 mg twice a day for two weeks vs placebo, p=0.037): reduces DG/CA3 hyper-activity
DG/CA3 hyperactivity during memory judgments (aMCI subjects [2]; levetiracetam 250 mg BID for two weeks, N=17): does not significantly reduce
performance in Buschke Selective Reminding Test-Delayed Recall, Benton Visual Retention Test, Verbal Paired Associates Test-Recognition and -Delayed Recall (aMCI subjects [3]): fail to rescue performance
levels of somatostatin (SOM-immunoreactive hilar neurons) in DG hilus (somatostatin in DG hilus): restores the levels of somatostatin; also recorded: restores sematostatin
absorption ([4]; after oral administration): rapidly and almost completely absorbed
Plasma half-life expected in elderly ([4]; elderly, due to decreased renal function): 9 to 10 h
time of peak plasma concentrations ([4]; following oral administration): about 1 hour
Plasma half-life ([4]; in vivo): approximately 7±1 hour
time to steady state ([4]; multiple twice-daily dosing): 2 days
effect of food on bioavailability ([4]; oral): not affected by food
